Experimental data taken from the supplement of paper PMC10331698.
± gives the standard deviation of the averaged measurements.

Key:
Test in all cases: level (log10 ratio to DMSO vehicle control); higher = higher biomarker level / cell amount than vehicle control
[1] = compound: C=C(C)C(=O)OCCC(F)(F)C(F)(F)C(F)(F)C(F)(F)C(F)(F)C(F)(F)C(F)(F)C(F)(F)F [8:2 Fluorotelomer methacrylate] (in DMSO)
Experimental: (§1)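 BioMAP Diversity Plus panel of 12 human primary cell co-culture systems (3C, 4H, LPS, SAg, BT, BF4T, BE3C, CASM3C, HDF3CGF, KF3CT, MyoF, Mphg). Compounds were added 1 h before stimulation and left for 24 h (MyoF 48 h; BT 72 h for soluble read-outs or 6 d for IgG). Biomarkers were read by ELISA, cytotoxicity by SRB, PBMC viability and proliferation by Alamar Blue. Each well value was divided by the mean of 8 DMSO control wells on the same plate and log10 transformed; duplicate blinded samples were tested at 4 concentrations.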

[2] = compound: O=S(=O)(O)C(F)(F)C(F)(F)C(F)(F)C(F)(F)C(F)(F)C(F)(F)C(F)(F)F [Perfluoroheptanesulfonic acid] (in DMSO)
Experimental: as §1

[3] = compound: O=C(O)C(F)(F)C(F)(F)C(F)(F)C(F)(F)C(=O)O [Octafluoroadipic acid] (in DMSO)
Experimental: as §1

[4] = compound: OCC(F)(F)C(F)(F)C(F)(F)C(F)F [1H,1H,5H-Perfluoropentanol] (in DMSO)
Experimental: as §1

[5] = compound: O=C(O)C(F)(F)OC(F)(F)C(F)(F)OC(F)(F)C(F)(F)OC(F)(F)C(F)(F)C(F)(F)C(F)(F)F [Perfluoro-3,6,9-trioxatridecanoic acid] (in DMSO); details: 6700 nM
Experimental: as §1

[6] = compound: O=C(O)CCC(F)(C(F)(F)F)C(F)(F)F [4,4-bis(Trifluoromethyl)-4-fluoropropanoic acid] (in DMSO)
Experimental: as §1

[7] = compound: CCOC(=O)CC(=O)C(F)(F)C(F)(F)F [Ethyl pentafluoropropionyl acetate] (in DMSO)
Experimental: as §1

Row | Test System | level (log10) ([1]; 6700 nM) | level (log10) ([1]; 20000 nM) | level (log10) ([2]; 1500 nM) | level (log10) ([2]; 4400 nM) | level (log10) ([2]; 13000 nM) | level (log10) ([2]; 40000 nM) | level (log10) ([3]; 6700 nM) | level (log10) ([3]; 20000 nM) | level (log10) ([3]; 60000 nM) | level (log10) ([4]; 6700 nM) | level (log10) ([4]; 20000 nM) | level (log10) ([4]; 60000 nM) | level (log10) [5] | level (log10) ([6]; 6700 nM) | level (log10) ([6]; 20000 nM) | level (log10) ([6]; 60000 nM) | level (log10) ([7]; 6700 nM) | level (log10) ([7]; 20000 nM) | level (log10) ([7]; 60000 nM)
1 | BF4T:MMP-1 | -0.01 ± 0.0085 | 0.0055 ± 0.00071 | 0.0055 ± 0.0078 | -0.0055 ± 0.005 | -0.019 ± 0.0014 | 0.0225 ± 0.0092 | 0.0065 ± 0.011 | -0.0025 ± 0.015 | 0.007 ± 0.0028 | 0.002 ± 0.018 | 0.0095 ± 0.018 | 0.012 ± 0.033 | -0.0535 ± 0.012 | -0.0025 ± 0.012 | -0.0015 ± 0.00071 | -0.004 ± 0.013 | -0.0045 ± 0.03 | -0.0005 ± 0.018 | 0.0155 ± 0.0035
2 | BF4T:MMP-3 | -0.0035 ± 0.019 | 0.0255 ± 0.044 | 0.047 ± 0.045 | -0.015 ± 0.014 | 0.0025 ± 0.046 | 0.117 ± 0.028 | 0.0055 ± 0.033 | -0.0055 ± 0.035 | 0.0025 ± 0.022 | -0.0125 ± 0.0064 | -0.007 ± 0.0099 | 0.002 ± 0.021 | -0.0415 ± 0.064 | 0.0295 ± 0.022 | 0.0285 ± 0.00071 | 0.031 ± 0.052 | 0.0105 ± 0.029 | -0.012 ± 0.047 | -0.0025 ± 0.052
3 | BF4T:MMP-9 | -0.002 ± 0.059 | 0.026 ± 0.061 | 0.0155 ± 0.08 | -0.031 ± 0.033 | -0.0335 ± 0.054 | -0.003 ± 0.041 | -0.0075 ± 0.047 | -0.0065 ± 0.036 | 0.0165 ± 0.026 | -0.001 ± 0.0085 | 0.0065 ± 0.019 | 0.0035 ± 0.013 | -0.106 ± 0.079 | 0.0265 ± 0.042 | 0.0145 ± 0.022 | 0.015 ± 0.042 | 0.002 ± 0.038 | -0.007 ± 0.044 | -0.007 ± 0.044
4 | BF4T:PAI-I | -0.0075 ± 0.0092 | 0.0055 ± 0.012 | 0.0205 ± 0.00071 | 0.01 | -0.0225 ± 0.011 | -0.0075 ± 0.025 | -0.0045 ± 0.026 | -0.011 ± 0.013 | 0.007 ± 0.0071 | 0.01 ± 0.0085 | 0.0095 ± 0.018 | 0.0215 ± 0.026 | -0.011 ± 0.011 | -0.002 ± 0.014 | -0.01 ± 0.013 | 0.008 ± 0.011 | 0.0015 ± 0.011 | 0.004 ± 0.011 | -0.0025 ± 0.011
5 | BF4T:SRB | -0.0045 ± 0.0035 | -0.0005 ± 0.00071 | 0.0075 ± 0.018 | -0.008 ± 0.0014 | -0.0125 ± 0.0021 | -0.016 ± 0.021 | -0.0145 ± 0.0064 | -0.011 ± 0.0071 | -0.0065 ± 0.0035 | -0.0055 ± 0.0021 | 0.001 ± 0.0085 | 0.002 ± 0.0014 | -0.038 ± 0.013 | 0.0065 ± 0.015 | 0.0015 ± 0.021 | 0.02 ± 0.014 | -0.004 | -0.0045 ± 0.0035 | -0.002 ± 0.0057
6 | BF4T:tPA | -0.027 ± 0.0028 | -0.017 ± 0.0057 | 0.0235 ± 0.052 | -0.0065 ± 0.0064 | -0.0165 ± 0.025 | 0.0225 ± 0.039 | -0.007 ± 0.0014 | -0.0065 ± 0.025 | 0.0035 ± 0.005 | -0.009 ± 0.028 | 0.0335 ± 0.022 | 0.04 ± 0.058 | -0.185 ± 0.057 | -0.0185 ± 0.035 | -0.019 ± 0.013 | -0.0035 ± 0.023 | -0.0045 ± 0.0092 | -0.0035 ± 0.0092 | -0.0145 ± 0.011
7 | BF4T:uPA | -0.013 ± 0.013 | 0.009 ± 0.0014 | 0.001 ± 0.018 | -0.0035 ± 0.012 | -0.017 ± 0.0014 | 0.0095 ± 0.0064 | -0.0115 ± 0.023 | -0.0175 ± 0.03 | -0.003 | -0.0215 ± 0.032 | 0.023 ± 0.016 | 0.013 ± 0.02 | 0.0245 ± 0.018 | -0.0015 ± 0.011 | -0.0065 ± 0.016 | -0.001 ± 0.0042 | -0.0145 ± 0.023 | -0.0045 ± 0.013 | -0.0175 ± 0.025
8 | BT:B cell Proliferation | -0.025 ± 0.018 | 0.037 ± 0.033 | 0.031 ± 0.041 | 0.0315 ± 0.057 | -0.0185 ± 0.021 | 0.0115 ± 0.053 | -0.014 ± 0.0028 | -0.023 ± 0.016 | 0.005 ± 0.031 | -0.016 ± 0.0042 | 0.0015 ± 0.046 | 0.0065 ± 0.057 | 0.028 ± 0.02 | 0.0195 ± 0.0035 | -0.0115 ± 0.035 | 0.0125 ± 0.0035 | 0.012 ± 0.017 | -0.006 ± 0.011 | 0.0035 ± 0.022
9 | BT:PBMC Cytotoxicity | -0.0005 ± 0.0021 | 0.016 ± 0.058 | -0.0045 ± 0.021 | -0.009 ± 0.011 | -0.0015 ± 0.013 | 0.0145 ± 0.054 | -0.0015 ± 0.029 | 0.001 ± 0.0014 | 0.0025 ± 0.019 | -0.0275 ± 0.013 | -0.038 ± 0.045 | -0.019 ± 0.042 | 0.0125 ± 0.0078 | 0.0145 ± 0.019 | -0.0095 ± 0.023 | -0.002 ± 0.057 | -0.0045 ± 0.026 | 0.011 ± 0.0099 | -0.0095 ± 0.029
10 | BT:Secreted IgG | 0.0175 ± 0.012 | 0.028 ± 0.0085 | 0.0285 ± 0.0021 | 0.0265 ± 0.0064 | -0.006 ± 0.033 | 0.002 ± 0.045 | 0.0285 ± 0.033 | 0.028 ± 0.027 | 0.0435 ± 0.011 | 0.044 ± 0.02 | 0.0295 ± 0.039 | 0.0475 ± 0.028 | -0.0225 ± 0.0092 | 0.019 ± 0.017 | -0.053 ± 0.062 | 0.0025 ± 0.005 | 0.024 ± 0.014 | 0.025 ± 0.0071 | 0.013 ± 0.0014
11 | BT:sIL-2 | -0.006 ± 0.024 | -0.04 ± 0.064 | -0.0445 ± 0.037 | 0.0215 ± 0.039 | -0.0005 ± 0.013 | -0.0565 ± 0.036 | -0.006 ± 0.15 | -0.012 ± 0.021 | -0.0495 ± 0.061 | -0.0095 ± 0.066 | -0.0245 ± 0.0078 | 0.0145 ± 0.059 | 0.0075 ± 0.016 | -0.0855 ± 0.13 | 0.02 ± 0.12 | 0.005 ± 0.2 | -0.058 ± 0.099 | -0.0055 ± 0.04 | -0.007 ± 0.069
12 | BT:sIL-6 | 0.0115 ± 0.042 | -0.0085 ± 0.11 | 0.004 ± 0.013 | 0.03 ± 0.013 | -0.027 ± 0.011 | -0.139 ± 0.057 | 0.013 ± 0.083 | 0.021 ± 0.016 | -0.102 ± 0.14 | 0.0265 ± 0.005 | 0.0175 ± 0.015 | 0.003 ± 0.014 | 0.0165 ± 0.032 | 0 ± 0.12 | -0.0215 ± 0.069 | -0.0665 ± 0.046 | 0.019 ± 0.099 | 0.046 ± 0.11 | -0.053 ± 0.1
13 | BT:sIL-17A | 0.077 ± 0.13 | 0.041 ± 0.16 | 0.0335 ± 0.076 | 0.113 ± 0.035 | 0.026 ± 0.14 | -0.078 ± 0.058 | -0.0875 ± 0.044 | 0.0075 ± 0.064 | 0.128 ± 0.092 | -0.0225 ± 0.086 | 0.044 | -0.0225 ± 0.25 | 0.0515 ± 0.14 | -0.037 ± 0.064 | 0.087 ± 0.054 | -0.019 ± 0.19 | -0.088 ± 0.0014 | -0.0195 ± 0.032 | -0.0685 ± 0.081
14 | BT:sIL-17F | 0.032 ± 0.037 | 0.1 ± 0.023 | -0.0155 ± 0.096 | 0.0185 ± 0.025 | 0.0535 ± 0.064 | -0.004 ± 0.067 | -0.027 ± 0.0028 | -0.009 ± 0.078 | 0.0275 ± 0.076 | -0.0035 ± 0.067 | -0.051 ± 0.035 | -0.013 ± 0.25 | 0.018 ± 0.027 | 0.064 ± 0.13 | 0.0385 ± 0.087 | -0.005 ± 0.0085 | 0.0355 ± 0.0092 | 0.0155 ± 0.0035 | -0.012 ± 0.093
15 | BT:sTNF-alpha | -0.031 ± 0.055 | -0.049 ± 0.0042 | -0.022 ± 0.018 | -0.043 ± 0.0042 | -0.048 ± 0.014 | -0.101 ± 0.0099 | 0.0535 ± 0.17 | 0.028 ± 0.17 | 0.116 ± 0.02 | -0.0315 ± 0.0092 | -0.051 ± 0.016 | -0.003 ± 0.068 | -0.0035 ± 0.057 | -0.0135 ± 0.22 | -0.051 ± 0.12 | -0.031 ± 0.16 | -0.124 ± 0.17 | 0.017 ± 0.072 | -0.0495 ± 0.07
